Like-named read-outs stand apart in the source and are kept apart here.

Assay type in all cases: in vivo
The test system of experiment [1] is AVEFA: wild oats (Avena fatua). Kind of experiment: Pre-emergent Test I herbicidal activity. Particulars: pre-emergence, 336 h, read-out: Visual Growth Reduction (%) 14 Days After Application, AVEFA; for pest or weed control at 4000 g/ha: 4 kg ai/ha. The essentials: (§1)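 Sandy loam pots; sub-irrigation 16 h pre-application; soil-surface application then water incorporation; greenhouse ~15 h light, 23-29° C day / 22-28° C night; 0-100 rating at 14 DAT vs controls.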

In experiment [2] the test system is HELAN: sunflower (Helianthus annuus). Description: Pre-emergent Test I herbicidal activity. Particulars: pre-emergence, 336 h, read-out: Visual Growth Reduction (%) 14 Days After Application, HELAN; for pest or weed control at 4000 g/ha: 4 kg ai/ha. The essentials:
as §1

For experiment [3], the system named is SETFA: giant foxtail (Setaria faberi). Description: Pre-emergent Test I herbicidal activity. Particulars: pre-emergence, 336 h, read-out: Visual Growth Reduction (%) 14 Days After Application, SETFA; for pest or weed control at 4000 g/ha: 4 kg ai/ha. An outline of the steps:
as §1

Experiment [4] relates to AMARE: redroot pigwseed (Amaranthus retroflexus). Description: Pre-emergent Test I herbicidal activity. Particulars: pre-emergence, 336 h, read-out: Visual Growth Reduction (%) 14 Days After Application, AMARE; for pest or weed control at 4000 g/ha: 4 kg ai/ha. An outline of the steps: as §1
In experiment [5] the test system is IPOHE: ivyleaf morningglory (Ipomoea hederecea). Description: Pre-emergent Test I herbicidal activity. Particulars: pre-emergence, 336 h, read-out: Visual Growth Reduction (%) 14 Days After Application, IPOHE; for pest or weed control at 4000 g/ha: 4 kg ai/ha. The essentials:
as §1

The subject of experiment [6] is ECHCG: barnyardgrass (Echinochloa crus-galli). Kind of experiment: Pre-emergent Test I herbicidal activity. Particulars: pre-emergence, 336 h, read-out: Visual Growth Reduction (%) 14 Days After Application, ECHCG; for pest or weed control at 4000 g/ha: 4 kg ai/ha. The essentials: as §1
For experiment [7], the system named is VERPE: bird's-eye speedwell (veronica persica). Kind of experiment: Post-emergent Test III, herbicidal activity in wheat and barley. Particulars: for pest or weed control at 35 g/ha / pest or weed control at 70 g/ha / pest or weed control at 140 g/ha: Veronica persica, post-emergence, 504 h, read-out: Visual Growth Reduction (%) 21 Days After Application VERPE; for pest or weed control at 35 g/ha: 35 g ai/ha; for pest or weed control at 70 g/ha: 70 g ai/ha; for pest or weed control at 140 g/ha: 140 g ai/ha; for GR50 VERPE / GR80 VERPE: probit analysis. The essentials: (§2)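 GR20, GR50, GR80 and GR90 come from probit analysis of visual injury scores (0 = none, 100 = complete kill) taken 21 d after treatment. Foliar application was by track sprayer delivering 187 L/ha at five rates, from high down to 1/16×, onto greenhouse plants at the 2–3 leaf stage, with solvent-blank controls.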

Experiment [8] concerns BROTE: downy brome (Bromus tectorum). The experiment is described as above. Particulars: for pest or weed control at 35 g/ha / pest or weed control at 70 g/ha / pest or weed control at 140 g/ha: Bromus tectorum, post-emergence, 504 h, read-out: Visual Growth Reduction (%) 21 Days After Application BROTE; for pest or weed control at 35 g/ha: 35 g ai/ha; for pest or weed control at 70 g/ha: 70 g ai/ha; for pest or weed control at 140 g/ha: 140 g ai/ha; for GR50 BROTE / GR80 BROTE: probit analysis, 21 days after application; for GR50 BROTE: dose for growth reduction of 50 percent; for GR80 BROTE: dose for growth reduction of 80 percent. The essentials:
as §2

For experiment [9], the system named is PAPRH: common poppy (Papaver rhoeas). The experiment is described as above. Particulars: for pest or weed control at 35 g/ha / pest or weed control at 70 g/ha / pest or weed control at 140 g/ha: Papaver rhoeas, post-emergence, 504 h, read-out: Visual Growth Reduction (%) 21 Days After Application PAPRH; for pest or weed control at 35 g/ha: 35 g ai/ha; for pest or weed control at 70 g/ha: 70 g ai/ha; for pest or weed control at 140 g/ha: 140 g ai/ha; for GR50 PAPRH / GR80 PAPRH: probit analysis. The essentials: as §2

The mark [10] stands for this setting: dose for growth reduction of 50 percent, 21 days after application.
The mark [11] stands for this setting: dose for growth reduction of 80 percent, 21 days after application.
[12] abbreviates: Table 8, dose for 50 percent growth reduction, 21 d.
[13] abbreviates: Table 8, dose for 80 percent growth reduction, 21 d.

As to `Nc1c(F)c(-c2ccc(I)cc2)nc(C(=O)O)c1Cl` [Compound 45, 4-amino-3-chloro-5-fluoro-6-(4-iodophenyl)picolinic acid], the pest or weed control at 3960 g/ha in experiment [1] (3.96 kg ai/ha), in experiment [2] (3.96 kg ai/ha), in [3] (3.96 kg ai/ha), in [4] (3.96 kg ai/ha), in [5] (3.96 kg ai/ha) and in experiment [6] (3.96 kg ai/ha) was 95 to 100% in each case. Further, the pest or weed control at 35 g/ha in experiment [7] is 75 to 84%; in experiment [8], 85 to 94%; in [9] it was 95 to 100%. For the same compound, the pest or weed control at 70 g/ha in experiment [7] was 85 to 94%; in experiment [8], 85 to 94%; in experiment [9], 95 to 100%. Further, the results for the pest or weed control at 140 g/ha in experiment [7], in experiment [8] and in experiment [9] were 85 to 94%, 95 to 100% and 95 to 100%, respectively. Further, in [7] (setting [10]), the “GR50 VERPE” value was 7 g ai/ha. In addition, in experiment [7] (setting [11]), the “GR80 VERPE” value is given as 30 g ai/ha. Also, the “GR50 BROTE” value in [8] was 13 g ai/ha. Besides, the “GR80 BROTE” value in experiment [8] amounted to 36 g ai/ha. Further, in experiment [9] (setting [10]), the “GR50 PAPRH” value is on record as 1 g ai/ha. The “GR80 PAPRH” value in [9] (setting [11]) was found to be 1 g ai/ha.

As to `COC(=O)c1nc(-c2ccc(Br)c(F)c2F)cc(N)c1Cl` [Compound 114, methyl 4-amino-6-(4-bromo-2,3-difluorophenyl)-3-chloropicolinate], the pest or weed control at 3920 g/ha was in the range of 95 to 100% in experiment [1] (3.92 kg ai/ha); 95 to 100% in experiment [2] (3.92 kg ai/ha); 85 to 94% in experiment [3] (3.92 kg ai/ha); 95 to 100% in experiment [4] (3.92 kg ai/ha); 95 to 100% in experiment [5] (3.92 kg ai/ha); 75 to 84% in experiment [6] (3.92 kg ai/ha). The pest or weed control at 35 g/ha in experiment [7] was 30 to 44%; in experiment [8], 0 to 29%; in experiment [9] it was 95 to 100%. The pest or weed control at 70 g/ha is 30 to 44% in experiment [7], 0 to 29% in experiment [8] and 95 to 100% in experiment [9]. Also, the pest or weed control at 140 g/ha in experiment [7] fell in the range of 30 to 44%; in [8] it was 0 to 29%; in experiment [9], 95 to 100%. Also, in experiment [7] (setting [10]), the “GR50 VERPE” value is recorded as over 140 g ai/ha. The “GR80 VERPE” value in experiment [7] (setting [11]) is on record as over 140 g ai/ha. Further, the “GR50 BROTE” value in [8] is given as over 140 g ai/ha. Besides, the “GR80 BROTE” value in experiment [8] was over 140 g ai/ha. For the same compound, the “GR50 PAPRH” value in experiment [9] (setting [10]) was found to be 1 g ai/ha. Moreover, in experiment [9] (setting [11]), the “GR80 PAPRH” value is 4 g ai/ha.

In the case of `COC(=O)c1nc(-c2ccc(C#N)c(F)c2)c(F)c(N)c1Cl` [Compound 135, methyl 4-amino-3-chloro-6-(4-cyano-3-fluorophenyl)-5-fluoropicolinate], the pest or weed control at 4040 g/ha in [1] (4.04 kg ai/ha) was in the range of 30 to 44%; in [2] (4.04 kg ai/ha) it was 95 to 100%; in experiment [3] (4.04 kg ai/ha), 30 to 44%; in experiment [4] (4.04 kg ai/ha), 95 to 100%; in experiment [5] (4.04 kg ai/ha), 95 to 100%; in [6] (4.04 kg ai/ha), 30 to 44%. For the same compound, the “GR50 VERPE” value in [7] (setting [12]) turned out to be 24 g ai/ha. Also, the “GR80 VERPE” value in experiment [7] (setting [13]) worked out at 78 g ai/ha. In addition, the pest or weed control at 35 g/ha in [7] (Table 8, post-emergent, 21 d) was 60 to 74%; in experiment [9] (Table 8, post-emergent, 21 d), 85 to 94%. Moreover, the pest or weed control at 70 g/ha in experiment [7] (Table 8, post-emergent, 21 d) lay within 75 to 84%; in [9] (Table 8, post-emergent, 21 d), 85 to 94%. Moreover, the pest or weed control at 140 g/ha lay within 85 to 94% in experiment [7] (Table 8, post-emergent, 21 d) and 95 to 100% in experiment [9] (Table 8, post-emergent, 21 d). Moreover, in [9] (setting [12]), the “GR50 PAPRH” value was determined as 1 g ai/ha. Also, in [9] (setting [13]), the “GR80 PAPRH” value was found to be 1 g ai/ha.

Take `COC(=O)c1nc(-c2ccc(Br)cc2)c(F)c(N)c1Cl` [Compound 138, Methyl 4-amino-6-(4-bromophenyl)-3-chloro-5-fluoropicolinate]: the pest or weed control at 4000 g/ha in experiment [1], in experiment [2], in experiment [3], in experiment [4], in experiment [5] and in experiment [6] was 95 to 100% in each case. In addition, the pest or weed control at 35 g/ha lay within 60 to 74% in experiment [7], 75 to 84% in experiment [8] and 95 to 100% in experiment [9]. The pest or weed control at 70 g/ha fell in the range of 85 to 94% in experiment [7], 85 to 94% in experiment [8] and 95 to 100% in [9]. For the same compound, the pest or weed control at 140 g/ha in experiment [7] is 85 to 94%; in experiment [8], 85 to 94%; in experiment [9], 95 to 100%. Further, the “GR50 VERPE” value in experiment [7] (setting [10]) is on record as 15 g ai/ha. The “GR80 VERPE” value in experiment [7] (setting [11]) worked out at 49 g ai/ha. In addition, the “GR50 BROTE” value in experiment [8] amounted to 12 g ai/ha. Besides, in experiment [8], the “GR80 BROTE” value came out at 42 g ai/ha. The “GR50 PAPRH” value in experiment [9] (setting [10]) was 1 g ai/ha. For the same compound, the “GR80 PAPRH” value in experiment [9] (setting [11]) came out at 1 g ai/ha.

Take `COC(=O)c1nc(-c2ccc(C(F)F)cc2)c(F)c(N)c1Cl` [Compound 209]: the pest or weed control at 4000 g/ha in experiment [1], in experiment [2], in [3], in [4], in experiment [5] and in experiment [6] was 95 to 100% in each case. For the same compound, the pest or weed control at 35 g/ha in [8] lay within 0 to 29%. Further, the pest or weed control at 70 g/ha in experiment [8] was 30 to 44%. Also, the “GR50 BROTE” value in experiment [8] is 88 g ai/ha. Moreover, in experiment [8], the “GR80 BROTE” value is reported as over 140 g ai/ha.

For the origin of these results see US9113629B2, “4-amino-6-(4-substituted-phenyl)-picolinates and 6-amino-2-(4-substituted-phenyl)-pyrimidine-4-carboxylates and their use as herbicides” (DOW AGROSCIENCES LLC, priority 2013, dated 2015).
